This is an account of results in patent US6642251B1, “Geometrically restricted 2-indolinone derivatives as modulators of protein kinase activity” (Sugen, Inc., priority 1998, dated 2003).

The assay concerns A375 cells (melanoma). As to the kind of experiment: A375 sc xenograft animal model. The assay is classed as in vivo, athymic mice (BALB/c, nu/nu). The settings on record: for % inhibition: vs vehicle. The source says: The ability of human tumors to grow as xenografts in athymic mice (e.g., Balb/c, nu/nu) provides a useful in vivo model for studying the biological response to therapies for human tumors. Since the first successful xeno-transplantation of human tumors into athymic mice, (Rygaard and Poylsen, 1969, Acta Pathol. Microbial. Scand., 77:758-760), many different human tumor cell lines (e.g., mammary, lung, genitourinary, gastro-intestinal, head and neck, glioblastoma, bone, and malignant melanomas) have been transplanted and successfully grown in nude mice. The following assays may be used to determine the level of activity, specificity and effect of the different compounds of the present invention. Three general types of assays are useful for evaluating compounds: cellular/catalytic, cellular/biological and in vivo. The object of the cellular/catalytic assays is to determine the effect of a compound on the ability of a TK to phosphorylate tyrosines on a known substrate in a cell. The object of the cellular/biological assays is to determine the effect of a compound on the biological response stimulated by a TK in a cell. The object of the in vivo assays is to determine the effect of a compound in an animal model of a particular disorder such as cancer.
Suitable cell lines for subcutaneous xenograft experiments include C6 cells (glioma, ATCC #CCL 107), A375 cells (melanoma, ATCC #CRL 1619), A431 cells (epidermoid carcinoma, ATCC #CRL 1555), Calu 6 cells (lung, ATCC #HTB 56), PC3 cells (prostate, ATCC #CRL 1435), SKOV3TP5 cells and NIH 3T3 fibroblasts genetically engineered to overexpress EGFR, PDGFR, IGF-1R or any other test kinase. The following protocol can be used to perform xenograft experiments:
Female athymic mice (BALB/c, nu/nu) are obtained from Simonsen Laboratories (Gilroy, Calif.). All animals are maintained under clean-room conditions in Micro-isolator cages with Alpha-dri bedding. They receive sterile rodent chow and water ad libitum.
Cell lines are grown in appropriate medium (for example, MEM, DMEM, Ham's F10, or Ham's F12 plus 5%-10% fetal bovine serum (FBS) and 2 mM glutamine (GLN)). All cell culture media, glutamine, and fetal bovine serum are purchased from Gibco Life Technologies (Grand Island, N.Y.) unless otherwise specified. All cells are grown in a humid atmosphere of 90-95% air and 5-10% CO2 at 37° C. All cell lines are routinely subcultured twice a week and are negative for mycoplasma as determined by the Mycotect method (Gibco).
Cells are harvested at or near confluency with 0.05% Trypsin-EDTA and pelleted at 450×g for 10 min. Pellets are resuspended in sterile PBS or media (without FBS) to a particular concentration and the cells are implanted into the hindflank of the mice (8-10 mice per group, 2-10×10^6 cells/animal). Tumor growth is measured over 3 to 6 weeks using venier calipers. Tumor volumes are calculated as a product of length×width×height unless otherwise indicated. P values are calculated using the Students t-test. Test compounds in 50-100 μL excipient (DMSO, or VPD:D5W (U.S. Pat. No. 5,610,173 to Sxhwartz, et al.), can be delivered by IP injection at different concentrations generally starting at day one after implantation.

As for `COc1ccc2c(c1)C(CC(=O)[O-])CC2=C1C(=O)Nc2ccccc21.[Na+]` (stereo not drawn) [Compound 13, [6-Methoxy-3-(2-oxo-1,2-dihydroindol-3-ylidene)-indan-1-yl]acetic Acid Sodium Salt], the “Average Tumor Volume” value came out at 569.9 mm3 (50 mg/kg/day), 324.4 mm3 (100 mg/kg/day) and 278.8 mm3 (200 mg/kg/day). Also, the % inhibition (in general, the share of the control response that was lost under treatment) (50 mg/kg/day) is 24.6%; the “% inhibition” value (100 mg/kg/day) is on record as 57.1%; the “% inhibition” value (200 mg/kg/day) is on record as 63.1%.
